Values of other authors, collected in patent publication US20130122091A1, “POLYDEOXYRIBONUCLEOTIDE-BASED COMPOSITIONS AND THEIR METHODS OF USE” (MEDESTEA INTERNAZIONALE SPA, priority 2010, published 2013).

How the values were obtained:
[1] = system: fibroblasts
[2] = PDRN-treated survivors, versus 2% of non-PDRN-treated survivors

Question: Which “increase in the number of fibroblasts” value [1] does the source give for polydeoxyribonucleotides [PDRNs] here?
Answer: Its value is 35%.

Question: What about the “increase in the production of all the dermal matrix components” value [1] of the same substance?
Answer: Its value is 30%.

Question: And the “Resolution of the serious hepatic veno-occlusive disease” value [2]?
Answer: Its value is 42%.
